Assays:
Experiment in all cases: relative viability (nuclei count vs DMSO), 5 days (fraction); higher = more cells survive
Cabozantinib + Dasatinib = compound: COc1cc2nccc(Oc3ccc(NC(=O)C4(C(=O)Nc5ccc(F)cc5)CC4)cc3)c2cc1OC [Cabozantinib] + Cc1nc(Nc2ncc(C(=O)Nc3c(C)cccc3Cl)s2)cc(N2CCN(CCO)CC2)n1 [Dasatinib] (partner 0.075 µM)
Method in brief: (§1)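 Medians of duplicate plates are given as relative viability. That measure is the nuclei count in treated wells divided by the count in vehicle wells. Counts were taken on 4× images of lung cancer cell lines in 1536-well plates, 5 days after pin-tool dosing the day after seeding with one drug alone or a fixed anchor-drug dose plus five library-drug doses (not always all listed) in √10 steps.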

Zosuquidar + Trametinib = compound: O[C@@H](COc1cccc2ncccc12)CN1CCN([C@@H]2c3ccccc3[C@@H]3[C@H](c4ccccc42)C3(F)F)CC1 [Zosuquidar] + CC(=O)Nc1cccc(-n2c(=O)n(C3CC3)c(=O)c3c(Nc4ccc(I)cc4F)n(C)c(=O)c(C)c32)c1 [Trametinib] (partner 0.02 µM)
Method in brief: as §1

Zosuquidar + Bortezomib = compound: O[C@@H](COc1cccc2ncccc12)CN1CCN([C@@H]2c3ccccc3[C@@H]3[C@H](c4ccccc42)C3(F)F)CC1 [Zosuquidar] + CC(C)C[C@H](NC(=O)[C@H](Cc1ccccc1)NC(=O)c1cnccn1)B(O)O [Bortezomib] (partner 0.002 µM)
Method in brief: as §1

Kobe2602 + Decitabine = compound: C1=CC(=CC=C1NC(=S)NNC2=C(C=C(C=C2[N+](=O)[O-])C(F)(F)F)[N+](=O)[O-])F [Kobe2602] + Nc1ncn([C@H]2C[C@H](O)[C@@H](CO)O2)c(=O)n1 [Decitabine] (partner 2 µM)
Method in brief: as §1

Cell Line	relative viability (Cabozantinib + Dasatinib; first compound 0.02 µM)	relative viability (Cabozantinib + Dasatinib; first compound 0.06325 µM)	relative viability (Cabozantinib + Dasatinib; first compound 0.2 µM)	relative viability (Cabozantinib + Dasatinib; first compound 0.6325 µM)	relative viability (Cabozantinib + Dasatinib; first compound 2 µM)	relative viability (Zosuquidar + Trametinib; first compound 0.01 µM)	relative viability (Zosuquidar + Trametinib; first compound 0.03162 µM)	relative viability (Zosuquidar + Trametinib; first compound 0.1 µM)	relative viability (Zosuquidar + Trametinib; first compound 0.3162 µM)	relative viability (Zosuquidar + Trametinib; first compound 1 µM)	relative viability (Zosuquidar + Bortezomib; first compound 0.01 µM)	relative viability (Zosuquidar + Bortezomib; first compound 0.03162 µM)	relative viability (Zosuquidar + Bortezomib; first compound 0.1 µM)	relative viability (Zosuquidar + Bortezomib; first compound 0.3162 µM)	relative viability (Zosuquidar + Bortezomib; first compound 1 µM)	relative viability (Kobe2602 + Decitabine; first compound 0.2 µM)	relative viability (Kobe2602 + Decitabine; first compound 0.6325 µM)	relative viability (Kobe2602 + Decitabine; first compound 2 µM)	relative viability (Kobe2602 + Decitabine; first compound 6.325 µM)	relative viability (Kobe2602 + Decitabine; first compound 20 µM)
NCI-H1734	0.389	0.452	0.467	0.402	0.34	0.591	0.773	0.658	0.734	0.623	0.771	0.959	0.918	0.997	1.06	0.49	0.539	0.497	0.48	0.481
NCI-H520	0.18	0.204	0.215	0.201	0.199	0.71	0.938	0.598	0.798	0.68	0.54	0.591	0.565	0.743	0.729	0.543	0.616	0.563	0.526	0.48
PC-14	0.219	0.339	0.0309	0.246	0.195	0.826	0.753	0.862	0.83	0.706	0.846	0.992	0.782	0.984	0.78	0.224	0.201	0.235	0.234	0.247
NCI-H2347	0.3	0.283	0.321	–	0.296	0.268	0.268	0.276	0.311	0.297	1.2	0.979	1.04	1.22	0.6	0.648	0.618	0.594	0.569	0.661
NCI-H650	–	0.504	0.452	0.49	0.445	1.22	0.957	1	0.969	1.08	0.858	0.863	–	1.01	0.919	0.313	0.304	0.32	0.289	0.376
NCI-H596	0.509	0.637	0.558	0.582	0.544	0.762	1	0.857	0.776	0.79	0.985	1.09	0.718	1.02	1.01	1.03	1.03	1.07	1.12	1.23
